# Several values for one entry are separate records, joined by “and”; a condition that tells them apart may be missing. Equal entries are not always repeated. Where two headings read alike, the source gives them in different places.
# Tests used:
# [1] = tested on: male CD-1 mice; assay: Mouse forced swim test; format: in vivo; details: for Latency to Immobility / Time Immobile 0-2 min / Time Immobile 0-6 min / Time Immobile 2-6 min: 30 min pretreatment, individual animals; for Latency to Immobility, Average / Time Immobile 0-2 min, Average / Time Immobile 0-6 min, Average / Time Immobile 2-6 min, Average: group average N = 10
# Protocol: Objective: A study was performed to assess the potential efficacy of Compound A using the mouse forced swim test. The forced swim test is a model of behavioral despair, and is sensitive to detection of various classes of antidepressant drugs (Can et al., The Mouse Forced Swim Test. J. Vis. Exp. 2012 (59), e3638, DOI:10.3791/3638). Study Design: Forty (40) male CD-1 mice received a 1-week period of acclimation to the test facility prior to the commencement of testing (events summarized in Table 1). […] All animal use procedures were performed in accordance with the principles of the Canadian Council on Animal Care (CCAC). Formulation of Compound A: Compound A (99.4% pure) was weighed (no correction for purity) and dissolved in DMSO at 20× the intended final concentration. The 20×DMSO stock solution of Compound A was diluted 20 fold with 0.5% methyl cellulose in water to achieve the final desired concentration. […] The above formulation was kept at room temperature and stirred continuously or vortex mixed prior to each dose administration. Forced swim test: Forty (40) male CD-1 mice received the appropriate dose of the vehicle, test article, or positive control (treatments summarized in Table 3). Following a pre-determined pre-treatment time (Can et al., 2012), animals were gently placed into tall glass cylinders filled with water (20-25° C.). […] The swim test involved scoring the duration of immobility. Over a 6-minute test session, the latency to first immobility was recorded (in seconds). […] Statistical Analysis: The results in Table 4 were tested for significance using T-, univariate, and Dunnett's tests as shown in Tables 5-14.
# [2] = Blood and brain collection after forced swim test (total brain-to-plasma ratio); format: in vivo; details: CD-1, brain and plasma, mouse, immediately following the forced swim test, read-out: total brain-to-plasma ratio (B/P ratio)
# Protocol: Blood and Brain Collection: Immediately following the forced swim test, all animals dosed with test article were anesthetized with isoflurane inhalant, and terminal blood collection (˜1 ml) was performed via cardiac puncture into potassium EDTA blood collection tubes (SOP ROD.14.02). Plasma was isolated from whole blood by centrifugation at 3000 rpm at 4° C. for 5 minutes. Once isolated, plasma was placed in cryovials and frozen at −80° C. until shipment for bioanalysis. Following blood collection, animals were decapitated and the whole brain collected as per standard operating procedure (SOP ROD.59). Brains were weighed, flash frozen, and stored at −80° C. until shipment.
smiles,measurement,setting,value
"Cc1cc(N2CCc3cc(F)ccc3C2)cc(C)c1NC(=O)CC(C)(C)C [Compound A, N-[4-(6-fluoro-3,4-dihydro-1H-isoquinolin-2-yl)-2,6-dimethylphenyl]-3,3-dimethylbutanamide]",Latency to Immobility,[1]; Compound A 1 mg/kg IP,77 s and 84 s and 206 s and 100 s and 70 s and 109 s and 144 s and 105 s and 130 s and 80 s
same,Time Immobile 0-2 min,[1]; Compound A 1 mg/kg IP,32 sec and 28 sec and 0 sec (3×) and 16 sec and 20 sec (2×) and 4 sec and 7 sec
same,Time Immobile 0-6 min,[1]; Compound A 1 mg/kg IP,174 s and 198 s and 33 s and 125 s and 169 s and 196 s and 134 s and 141 s and 170 s
same,Time Immobile 2-6 min,[1]; Compound A 1 mg/kg IP,142 s and 170 s and 33 s and 109 s and 149 s and 192 s and 134 s and 189 s and 141 s and 150 s
same,"Latency to Immobility, Average",[1]; Compound A 1 mg/kg IP,110.5 s
same,"Time Immobile 0-2 min, Average",[1]; Compound A 1 mg/kg IP,12.7 s
same,"Time Immobile 0-6 min, Average",[1]; Compound A 1 mg/kg IP,153.6 s
same,"Time Immobile 2-6 min, Average",[1]; Compound A 1 mg/kg IP,140.9 s
same,Latency to Immobility,[1]; Compound A 3 mg/kg IP,135 s and 165 s and 155 s and 86 s and 150 s and 127 s and 192 s and 162 s and 83 s and 105 s
same,Time Immobile 0-2 min,[1]; Compound A 3 mg/kg IP,0 sec (7×) and 23 sec and 21 sec and 15 sec
same,Time Immobile 0-6 min,[1]; Compound A 3 mg/kg IP,166 s and 144 s and 122 s and 207 s and 82 s and 146 s and 101 s and 90 s and 184 s and 181 s
same,Time Immobile 2-6 min,[1]; Compound A 3 mg/kg IP,166 s and 144 s and 122 s and 184 s and 82 s and 146 s and 101 s and 90 s and 163 s
same,"Latency to Immobility, Average",[1]; Compound A 3 mg/kg IP,136.0 s
same,"Time Immobile 0-2 min, Average",[1]; Compound A 3 mg/kg IP,5.9 s
same,"Time Immobile 0-6 min, Average",[1]; Compound A 3 mg/kg IP,142.3 s
same,"Time Immobile 2-6 min, Average",[1]; Compound A 3 mg/kg IP,136.4 s
same,effect in the mouse forced swim test model (in words),[1]; Tables 5-13,statistically significant effects
same,Kp at 36 min,[2]; 1 mg/kg IP,2.2
same,Kp at 36 min,[2]; 3 mg/kg IP,2.2

# Source: patent publication US12178811B2, “Methods of treating depressive disorders” (priority 2019, dated 2024)
